The source of these data is patent US20250295638A1, “METHODS OF TREATING ALLOGRAFT REJECTION” (Bargent Therapeutics Pty Ltd, priority 2022, published 2025).

One assay deals with serum heparan sulphate. In words: ELISA assay for serum heparan sulphate after renal allotransplantation. It is filed as in vivo, rat. Conditions: combined days 2, 4, 6. Here is the method:
(§1) Left orthotopic renal transplants were performed with a mean anastomosis time of 37±4 minutes using a standard technique (11), which would be well known to the skilled person. The procured kidney was perfused with 2 ml Custodial HTK solution (Chemie GMBH, Alsbach-Hähnlein, Germany) at […]. Transplanted rats were given analgesia (Carprofen 5 mg/kg every 12-24 hours subcutaneously) and a prophylactic antibiotic (Enrofloxacin 5 mg/kg SC 12 hourly) for 3 days. The transplanted kidney and blood were procured on day 6 immediately after euthanasia by CO2 asphyxiation. The kidney and blood were used for measurements of gene expression in intragraft lymphoid cells and peripheral blood mononuclear cells.
(§2) Groups used in this study are set out in Tables 6 and 7. Comparisons were made between an isograft control treatment group (i.e., a control for ischaemia reperfusion injury), a non-treated allograft group, and Castanospermine-treated allograft group. A primary comparison was made between the non-treated group versus the Castanospermine-treated group. […]
Serum samples, separated from whole blood were aliquoted and stored at −80° C. […] Absorbance was immediately measured at 450 nm on a Versa Max Microplate Reader (Molecular Devices, Sunnyvale, California, USA) and the results calculated in ng/ml according to the internal standard curve. […]
Background: ELISA stands for enzyme-linked immunosorbent assay.

The subject of assay [1] is heparan sulphate in the renal allotransplant. In words: H-scores for heparan sulphate in the renal allotransplant by digital image pathology. It is filed as in vivo, rat. To be noted: for H-score for heparan sulphate, estimate of difference: day 6 after transplantation. The procedure:
as §1, §2
Whole slide digital images were acquired using an Aperio AT2 (Leica Biosystems, Wetzlar, Germany) at 20× magnification before analysis using the HALO v2.0 software (Indica laboratory, Corrales, New Mexico, USA). After selecting tissue areas, the percentage of total pixels with weak, moderate and strong staining intensity was measured using the ‘Area Quantification V1.0’ algorithm. Histology-score quantitation was calculated for each slide as H-score=(1×weak %)+(2×moderate %)+(3×strong %) providing a range from 0 to 300 (30). 4-6 sections per sample were scored at different levels through the tissue to obtain an average. […]
Three treatment Groups were studied at day 6 after transplantation. […] H Score quantitation is calculated for each slide as H-score=(1×weak %)+(2×moderate %)+(3×strong %) giving a score ranging from 0 to 300. There were 4-6 slides per kidney sample from one rat scored (each taken at different levels through the tissue) to obtain an average for that rat. […]

The subject of assay [2] is heparanase (HPSE) expression in kidney transplant lymphoid cells. In words: Heparanase expression (ddPCR, fractional abundance of cDNA) in lymphoid cells from kidney transplants. It is filed as in vivo, rat. To be noted: Cast 150 mg/kg minus Non-Treated; day 6 after transplantation.
Description: RNA was manually extracted using the RNeasy Plus Mini Kit as per the manufacturer's instructions (Qiagen, Hilden, Germany). […] The quality of the RNA was measured using the Nanodrop 2000 (ThermoFisher Scientific, MA, USA) and quantified using the Qubit 2.0 Fluorometer (Invitrogen, MA, USA), RNA was stored at −800 C. […]
The test system of assay [3] is heparanase (HPSE) expression in peripheral blood lymphoid cells. Description: Heparanase expression (ddPCR, fractional abundance of cDNA) in peripheral blood lymphoid cells of kidney transplanted rats. Conditions: day 6 after transplantation. It is filed as in vivo, rat. The procedure: as §1
(§3) Studies about gene expression of heparanase were performed on lymphoid cells from transplanted kidney tissue and peripheral blood on day 6 after transplantation. This time frame encompassed the period of maximum rejection at day 6.
Castanospermine was administered by Alzet osmotic pumps (Alza Corporation, Palo Alto, United States) at an immunosuppressive dose of 150 mg/kg per day. […]
RNA was manually extracted using the RNeasy Plus Mini Kit as per the manufacturer's instructions (Qiagen, Hilden, Germany). […] The quality of the RNA was measured using the Nanodrop 2000 (ThermoFisher Scientific, MA, USA) and quantified using the Qubit 2.0 Fluorometer (Invitrogen, MA, USA), RNA was stored at […]. […]
Custom ddPCR assays were designed using the IDT PrimerQuest™ Tool, Prime Time qPCR assay (IDT, Singapore). […] A 25 ul reaction containing, ddPCR SuperMix for Probes (No dUTP) (Bio-Rad, Hercules, CA, USA), a hypoxanthine-guanine phosphoribosyl transferase reference control (HPRT-1) and heparanase target probes (HPSE) (IDT, Singapore). cDNA and water were created for each sample and added to a 96 well plate ready for ddPCR droplet generation. […]
The samples were left on the cycler for a minimum of 4 hours at 4° C. The droplets were then read on the QX200 Droplet Reader and analysed using QuantaSoft Software (Bio-Rad, Hercules, CA, USA). […]

The test system of assay [4] is ischaemia reperfusion injury. Conditions: reference (2); cited from earlier work.
Assay [5] deals with pancreatic islet allografts. To be noted: no IRI control, cited from earlier work.
The subject of assay [6] is heart allograft (PVG donor, DA recipient). Description: Rat heterotopic cardiac transplantation: heart allograft survival. It is filed as in vivo. To be noted: for heart allograft survival times, mean / heart allograft survival times, median: PVG-DA allograft. Here is the method: Inbred rat strains PVG (RT1c) (donor) and DA (RT1a) (recipient) used for heart and renal transplantation were housed under standard conditions. All procedures were approved and audited by an Animal Care and Ethics Committee in Australia.
Heterotopic cardiac transplants were done using a standard technique (10). Cardiac function was assessed daily by abdominal palpation. The end point of cardiac transplant survival was defined as the last day of palpable heart beating. Care of all rats in this study complied with the Animal Research Act 1985 (NSW, Australia). The protocols were designed to minimise pain and discomfort to the animals. Animals were acclimatised to laboratory conditions (22° C., 12 h cycle of light and dark, 50% humidity, ad libitum access to food and water) for a minimum of 1 wk. prior to experimentation. Intragastric gavage administration was carried out with conscious animals, using curved gavage needles appropriate for animal size (250-300 gm body weight: Gauge 16, 100 mm). All transplanted rats were given post-operative analgesia (Carprofen 4 mg/kg every 12-24 h subcutaneously). They were euthanized by approved carbon dioxide asphyxiation when the heart stopped beating prior to tissue procurement.
as §3
Castanospermine was administered by Alzet osmotic pumps (Alza Corporation, Palo Alto, United States) at an immunosuppressive dose of 150 mg/kg per day. OGT 2115 treatment started on the first post operative day and the Castanospermine treatment started on the day of the transplant.
An experiment was conducted comparing heart allograft survival in 6 groups of inbred rats.
These tests were assessed using the Wilcoxon rank sum test procedure. The mean, median, min, max and the first and third quartiles are presented for each group, as well as the estimated difference in location parameters with 95% confidence intervals. The difference in location parameters is the median of the difference between a sample from the first group and a sample from the second group.

Where [7] appears, read: Castanospermine (150 mg/kg per day) v Isograft.
The mark [8] stands for this setting: Non-treated v Castanospermine (150 mg/kg per day).
Where [9] appears, read: Group 4: OGT 2115 2.5 mg/kg subcutaneously.
Where [10] appears, read: Group 5: OGT 2115 5 mg/kg subcutaneously.
Where [11] appears, read: Group 6: 10 mg/Kg, Wilcoxon difference in location.
The mark [12] stands for this setting: Group 6: OGT 2115 10 mg/kg subcutaneously.

Take `O[C@H]1[C@H](O)[C@@H](O)CN2CC[C@H](O)[C@H]12` [Castanospermine]: the “serum heparan sulphate levels, ratio of estimate of difference” value in the assay with serum heparan sulphate (setting [7]) is listed as 1.05; in the assay with serum heparan sulphate (setting [8]) it was 1.72. Moreover, the entries for the “H-score for heparan sulphate, estimate of difference” value in assay [1] (setting [7]) and in assay [1] (setting [8]) were −3.08 and 34.78, respectively. The “breakdown of HSPG (in words)” value in assay [1] (in both the allotransplant and the serum from allotransplanted rats, 150 mg/kg per day) is on record as “effectively stops the breakdown of HSPG”. For the same compound, in assay [2], the “Estimated mean difference in heparanase levels (percent heparanase cDNA), kidney samples” value was −31.0%. Moreover, in assay [3] (Cast 150 mg/kg minus Non-Treated), the “Estimated mean difference in heparanase levels (percent heparanase cDNA), peripheral blood samples” value is on record as 22.1%.

Regarding Roneparstat, in assay [4], the “ischaemia reperfusion injury (in words)” value is listed as “curtail ischaemia reperfusion injury”.

Take PI 88: the “rejection of islet allografts (in words)” value in assay [5] (WO 2008/046162, example 8 and FIG. 10) was “curtails rejection of islet allografts”. Further, the “survivals of pancreatic islet allografts (in words)” value in assay [5] (WO 2011/109877, Example 7 and FIG. 15) is given as “prolonged”.

Turning to `O=C(O)Cc1ccc2oc(-c3ccc(NC(=O)/C=C/c4ccc(Br)cc4)c(F)c3)nc2c1` [OGT 2115], the “survival of the heart allotransplant grafts (in words)” value in assay [6] (2.5, 5 and 10 mg/Kg, Table 2 and FIG. 1) was “prolonged the survival”. The “heart allograft survival times, mean” value in assay [6] (setting [9]) is 7.40 days; in assay [6] (setting [10]), 7.33 days; in assay [6] (setting [12]) it was 9.18 days. Besides, the “heart allograft survival times, median” value is 8 days in assay [6] (setting [9]), 7 days in assay [6] (setting [10]) and 9 days in assay [6] (setting [12]). In assay [6] (setting [11]), the “estimated increase in survival compared to DMSO” value is 3 days. Besides, the “estimated increase in survival compared to Non-treated PVG-DA” value in assay [6] (setting [11]) is reported as 2 days. Moreover, the “Estimated mean difference in heparanase levels (percent heparanase cDNA), peripheral blood samples” value in assay [3] (OGT 2115 10 mg/kg minus Isograft) was 17.0%; in assay [3] (OGT 2115 10 mg/kg minus Non-Treated) it was 35.9%.
